Results on 45 molecules are retold here after US20060089371A1, “Phenyl or heteroaryl amino alkane derivatives as ip receptor antagonist” (Bayer HealthCare AG, priority 2002, published 2006).

Each structure is given as a SMILES string. Where a name gives a salt, the structure may show the parent alone. Some results are limits rather than exact numbers.

Test system in the first series: not given
Experiment: not given
Settings: not given
Turning to `O=C(O)[C@@H](Cc1ccccc1)Nc1cc(-c2ccc(OCC3CC3)cc2)ncn1` [Example 1-2, N-{6-[4-(Cyclopropylmethoxy)phenyl]pyrimidin-4-yl}-D-phenylalanine], the melting point – broadly, the temperature, or range, at which the solid turns liquid – was 180 to 183 °C (dec.). Same read-out and setting: the same measure for `O=C(O)[C@@H](Cc1ccccn1)Nc1cc(-c2ccc(OCc3ccccc3)cc2)ncn1` [Example 1-4, N-{6-[4-(benzyloxy)phenyl]pyrimidin-4-yl}-3-pyridin-2-yl-D-alanine]: 142 °C; for `O=C(Nc1ccccc1)c1ccc(-c2cc(NC(Cc3ccccc3)C(=O)O)ncn2)cc1` (stereo not shown) [Example 1-5]: 228 to 231 °C (dec.); for `O=C(O)C(Cc1ccccc1)Nc1cc(-c2ccc(CCCc3ccccc3)cc2)ncn1` (stereo not shown) [Example 1-6]: 112 to 114 °C.

`O=C(O)[C@H](Cc1ccccc1)Nc1cc(-c2ccc(Cc3ccccc3)cc2)ncn1` [Example 18-1, N-[6-(4-Benzylphenyl)pyrimidin-4-yl]phenylalanine] came in with a melting point of 116 to 118 °C.

For a further series, the target named is T1, IP receptor (Homo sapiens, UniProt P43119).
T1 construct: one million cells in 160 μl aliquot of cell suspension were put in a well of 96 well plate; host or cells: HEL 92.1.7 human erythroleukemia cells (whole cells)
T1 sequence (P43119 whole entry): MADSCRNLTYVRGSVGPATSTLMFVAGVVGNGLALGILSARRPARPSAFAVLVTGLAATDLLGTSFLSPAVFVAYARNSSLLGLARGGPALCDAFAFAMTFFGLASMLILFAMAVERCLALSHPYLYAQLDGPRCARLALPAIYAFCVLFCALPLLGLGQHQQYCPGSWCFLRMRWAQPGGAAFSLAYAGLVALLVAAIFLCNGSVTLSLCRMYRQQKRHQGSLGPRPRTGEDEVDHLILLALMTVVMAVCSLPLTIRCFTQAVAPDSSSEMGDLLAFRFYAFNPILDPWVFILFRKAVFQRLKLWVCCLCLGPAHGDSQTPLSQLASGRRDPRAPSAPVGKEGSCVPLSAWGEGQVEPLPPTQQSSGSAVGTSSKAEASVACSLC
In words: IP receptor binding/cAMP in HEL cells ([3H]-iloprost binding, Assay 1; iloprost-induced cAMP production, Assay 2). Conditions: compounds of about 40 to 90% purity, read-out: In vitro activity grade (IC50 class). Here is the method:
[Measurement of the [^3H]-iloprost Binding to HEL Cells] (Assay 1)
A human erythloleukemia cell line, HEL 92.1.7, was purchased from American Type Culture Correction and maintained in RPMI-1640 medium (Gibco BRL) supplemented with 10% fetal calf serum (FCS), 2 mM glutamine, 4.5 g/L glucose, 10 mM Hepes, 1 mM sodium pyruvate, 100 U/ml penicillin, and 100 μg/ml streptomycin in a humidified 5% CO2 atmosphere at 37° C. Cells were collected with centrifugation and washed with binding assay buffer (BAB: 50 mM Tris-HCl, 5 mM MgCl2 (pH 7.5)). Cells were suspended at the density of 6.25×10^6 cells/ml in BAB, and one million cells in 160 μl aliquot of cell suspension were put in a well of 96 well plate (Falcon). Then, 20 μl of compound solution, 100 μM of iloprost (for non-specific binding), or buffer alone (total binding), diluted with 1% DMSO in BAB was added. Finally, another 20 μl containing [^3H]-iloprost (0.02 μCi, 0.5-1 pmol) in BAB was added and incubated at room temperature for 30 min with a gentle shaking. Cell suspension was then transferred to a well of MultiScreen plate with GF/C glass filters (Millipore) to harvest cells. Cells were washed twice with 200 μl of ice-cold BAB and the plate was kept at 55° C. for 30 min to dry filters. The filter in the well was punched out to a counting tube and 2 ml of Ultima Gold XR (Packard) was added. [^3H]-radio activity in the filter was measured by a liquid scintillation counter (Beckman, USA).
[Iloprost-Induced cAMP Production Assay in HEL Cells] (Assay 2)
HEL cells were collected with centrifugation and washed with cAMP assay buffer (CAB: Hank's balanced salt solution, 17 mM Hepes, 0.1% bovine serum albumin, 1 mM IBMX, 0.4% DMSO, and 1 mM L-ascorbic acid sodium salt (pH 7.4)). Cells were suspended at the density of 2.5×10^5 cells/ml in CAB, and twenty thousand cells in 80 μl aliquot of cell suspension were put in a well of 96 well plate (Falcon). Then, 10 μl of compound solution diluted with 1% DMSO in CAB or buffer alone was added. The plate was incubated at 37° C. for 30 min. Then, another 10 μl containing 100 nM iloprost in CAB or buffer alone was added and further incubated at 37° C. for 30 min. cAMP content in the well was measured by a cAMP ELISA kit (Applied Biosystems, USA).
The data corresponds to the compounds as yielded by solid phase synthesis and thus to levels of purity of about 40 to 90%. For practical reasons, the compounds are grouped in three classes of activity as follows: IC50=A<0.1 μM≦B<1 μM≦C
A general note: Cyclic AMP is a second messenger, typically raised through Gs and lowered through Gi signalling.
In the case of `O=C(O)[C@@H](Cc1ccccc1)Nc1cc(-c2ccc(OCc3ccccc3)cc2)ncn1` [Example 1-1, N-{6-[4-(Benzyloxy)phenyl]pyrimidin-4-yl}-D-phenylalanine], the IC50 (usually the concentration needed to halve the response being measured) is < 100 nM. The same measure, in the same setting: the same measure for `O=C(O)[C@@H](Cc1ccccc1)Nc1cc(-c2ccc(OCC3CC3)cc2)ncn1` [Example 1-2, N-{6-[4-(Cyclopropylmethoxy)phenyl]pyrimidin-4-yl}-D-phenylalanine]: < 100 nM; for `CCCC[C@@H](Nc1cc(-c2ccc(OCc3ccccc3)cc2)ncn1)C(=O)O` [Example 1-3, N-{6-[4-(benzyloxy)phenyl]pyrimidin-4-yl}-D-norleucine hydrochloride]: < 100 nM; for `O=C(O)[C@@H](Cc1ccccn1)Nc1cc(-c2ccc(OCc3ccccc3)cc2)ncn1` [Example 1-4, N-{6-[4-(benzyloxy)phenyl]pyrimidin-4-yl}-3-pyridin-2-yl-D-alanine]: < 100 nM. Turning to `O=C(Nc1ccccc1)c1ccc(-c2cc(NC(Cc3ccccc3)C(=O)O)ncn2)cc1` (stereo not shown) [Example 1-5], the IC50 is 100 to 1000 nM. Still for that read-out and setting: the same measure for `O=C(O)C(Cc1ccccc1)Nc1cc(-c2ccc(CCCc3ccccc3)cc2)ncn1` (stereo not shown) [Example 1-6]: < 100 nM; for `O=C(O)C(Cc1ccccc1)Nc1cc(-c2ccc(OCc3ccccc3)cc2)nc(Cl)n1` (stereo not shown) [Example 1-21]: < 100 nM; for `O=C(O)C(Cc1c[nH]c2ccccc12)Nc1cc(-c2ccc(OCc3ccccc3)cc2)ncn1` (stereo not shown) [Example 1-37]: < 100 nM. Still for that read-out and setting: the same measure for `Nc1nc(NC(Cc2ccccc2)C(=O)O)cc(-c2ccc(OCc3ccccc3)cc2)n1` (stereo not shown) [Example 1-38]: < 100 nM; for `O=C(O)C(Cc1ccccc1)Nc1cc(-c2ccccc2)ncn1` (stereo not shown) [Example 1-51]: 100 to 1000 nM. In the case of `O=C(O)C(Cc1ccccc1)Nc1cc(-c2ccc(F)cc2)ncn1` (stereo not shown) [Example 1-52], the IC50 lay in the range of 100 to 1000 nM. Same read-out and setting: the same measure for `O=C(O)C(Cc1ccccn1)Nc1cc(-c2ccc(-c3ccccc3)cc2)ncn1` (stereo not shown) [Example 1-53]: < 100 nM; for `CSc1nc(NC(Cc2ccccc2)C(=O)O)cc(-c2ccc(OCc3ccccc3)cc2)n1` (stereo not shown) [Example 1-54]: 100 to 1000 nM; for `O=C(O)C(Cc1ccccc1)Nc1cc(-c2ccc(Cl)cc2)ncn1` (stereo not shown) [Example 1-55]: 100 to 1000 nM. Consider `CCOc1ccc(-c2cc(NC(Cc3ccccc3)C(=O)O)ncn2)cc1` (stereo not shown) [Example 2-18], for which the IC50 is < 100 nM. The same measure, in the same setting: the same measure for `CCCOc1ccc(-c2cc(NC(Cc3ccccc3)C(=O)O)ncn2)cc1` (stereo not shown) [Example 2-19]: < 100 nM; for `COc1cccc(COc2ccc(-c3cc(NC(Cc4ccccn4)C(=O)O)ncn3)cc2)c1` (stereo not shown) [Example 2-36]: < 100 nM; for `COc1cc(COc2ccc(-c3cc(NC(Cc4ccccn4)C(=O)O)ncn3)cc2)cc(OC)c1` (stereo not shown) [Example 2-37]: < 100 nM. For `O=C(O)C(Cc1ccccc1)Nc1cc(-c2ccc(OCC3CC3)c(F)c2)ncn1` (stereo not shown) [Example 2-41], the concentration for half-maximal inhibition (IC50) is < 100 nM. On the same count and under the same terms, the same measure for `CCCCC(Nc1cc(-c2ccc(OCC3CC3)c(F)c2)ncn1)C(=O)O` (stereo not shown) [Example 2-42]: 100 to 1000 nM; for `O=C(O)C(Cc1ccccn1)Nc1cc(-c2ccc(OCC3CC3)c(F)c2)ncn1` (stereo not shown) [Example 2-43]: 100 to 1000 nM.

Regarding `O=C(O)[C@H](Cc1ccccc1)Nc1ccnc(-c2ccc(OCc3ccccc3)cc2)n1` [Example 3-1, N-{2-[4-(Benzyloxy)phenyl]-4-pyrimidinyl}phenylalanine], the IC50 lay within 100 to 1000 nM. In the case of `O=C(O)C(Cc1cccc(OCCN2CCOCC2)c1)Nc1cc(-c2ccc(OCc3ccccc3)cc2)ncn1` (stereo not shown) [Example 4-2], the IC50 was < 100 nM. For the molecule `O=C(O)[C@H](Cc1ccc(NC2=NCCN2)cc1)Nc1cc(-c2ccc(OCc3ccccc3)cc2)ncn1` [Example 6-1, N-{6-[4-(Benzyloxy)phenyl]pyrimidin-4-yl}-4-(4,5-dihydro-1H-imidazol-2-yl-amino)phenylalanine], the IC50 was < 100 nM. Regarding `O=C(O)C(Cc1ccccc1)Nc1cc(-c2ccc(CCc3ccccc3)cc2)ncn1` (stereo not shown) [Example 8-1, N-{6-[4-(2-Phenylethyl)phenyl]pyrimidinyl}phenylalanine], the IC50 was < 100 nM. `COc1ccc(-c2ccc(-c3cc(N[C@@H](Cc4ccccc4)C(=O)O)ncn3)cc2)cc1` [Example 11-1, N-[6-(4′-Methoxybiphenyl-4-yl)pyrimidin-4-yl]phenylalanine]: the IC50 is < 100 nM. Same read-out and setting: the same measure for `O=C(O)C(Cc1ccccc1)Nc1cc(-c2ccc(-c3ccc(-c4ccccc4)cc3)cc2)ncn1` (stereo not shown) [Example 11-8]: > 1000 nM.

For the molecule `N#Cc1ccnc(Oc2ccc(-c3cc(N[C@@H](Cc4ccccc4)C(=O)O)ncn3)cc2)c1` [Example 12-1, N-(6-{4-[(4-cyanopyridin-2-yl)oxy]phenyl}pyrimidin-4-yl)phenylalanine], the IC50 is < 100 nM. `O=C(O)C(Cc1ccccc1)Nc1cc(-c2ccc(Oc3ncc(C(F)(F)F)cc3Cl)cc2)ncn1` (stereo not shown) [Example 12-2]: the IC50 is > 1000 nM.

Take `O=C(O)C(Cc1ccccc1)Nc1cc(-c2ccc(Oc3cc(C(F)(F)F)ncn3)cc2)ncn1` (stereo not shown) [Example 12-3]: the IC50 fell in the range of 100 to 1000 nM.

As to `Cc1ccc(C#N)c(Oc2ccc(-c3cc(NC(Cc4ccccc4)C(=O)O)ncn3)cc2)n1` (stereo not shown) [Example 12-4], the IC50 was > 1000 nM. The same measure, in the same setting: the same measure for `O=C(O)C(Cc1ccccc1)Nc1cc(-c2ccc(Oc3ccc(C(F)(F)F)cn3)cc2)ncn1` (stereo not shown) [Example 12-5]: 100 to 1000 nM; for `O=C(O)C(Cc1ccccc1)Nc1cc(-c2ccc(Oc3ccc4ccccc4n3)cc2)ncn1` (stereo not shown) [Example 12-6]: 100 to 1000 nM; for `O=C(O)C(Cc1ccccc1)Nc1cc(-c2ccc(NCc3ccccc3)cc2)ncn1` (stereo not shown) [Example 13-1, N-{6-[4-Benzylamino)phenyl]pyrimidin-4-yl}phenylalanine hydrochloride]: < 100 nM. On the same count and under the same terms, the same measure for `O=C(O)[C@H](Cc1ccccc1)Nc1cc(-c2ccc(NS(=O)(=O)c3ccccc3)cc2)ncn1` [Example 15-1, N-(6-{4-[(Phenylsulfonyl)amino]phenyl}pyrimidin-4-yl)phenylalanine]: > 1000 nM; for `O=C(O)[C@H](Cc1ccccc1)Nc1cc(-c2ccc(NCC3CC3)cc2)ncn1` [Example 16-1, N-(6-{4-[(Cyclopropylmethyl)amino]phenyl}pyrimidin-4-yl)phenylalanine]: 100 to 1000 nM; for `O=C(O)C(Cc1ccccc1)Nc1cc(-c2ccc(CNc3ccccc3)cc2)ncn1` (stereo not shown) [Example 19-1, N-{6-[4-(Anilinomethyl)phenyl]pyrimidinyl}phenylalanine]: < 100 nM. Same read-out and setting: the same measure for `O=C(O)C(Cc1ccccc1)Nc1cc(-c2ccc(CN3Cc4ccccc4C3)cc2)ncn1` (stereo not shown) [Example 19-3]: 100 to 1000 nM; for `O=C(O)[C@H](Cc1ccccc1)Nc1cc(-c2ccc(COc3ccccc3)cc2)ncn1` [Example 20-1, N-{6-[4-(Phenoxymethyl)phenyl]pyrimidin-4-yl}phenylalanine]: < 100 nM; for `c1ccc(COc2ccc(-c3cc(NC(Cc4ccccn4)c4nnn[nH]4)ncn3)cc2)cc1` (stereo not shown) [Example 27-2]: 100 to 1000 nM. As for `O=C(O)C(Cc1ccccc1)Nc1cc(-c2ccc(OCc3ccccc3)cc2)on1` (stereo not shown) [Example 28-2], the IC50 was < 100 nM. Still for that read-out and setting: the same measure for `Cn1nc(-c2ccc(OCc3ccccc3)cc2)cc1NC(Cc1ccccc1)C(=O)O` (stereo not shown) [Example 28-3]: > 1000 nM; for `O=C(O)C(Cc1ccccc1)Nc1nc(-c2ccc(OCc3ccccc3)cc2)cs1` (stereo not shown) [Example 28-4]: > 1000 nM. Same read-out and setting: the same measure for `O=C(O)[C@H](Cc1ccccc1)Nc1nccc(-c2ccc(OCc3ccccc3)cc2)n1` [Example 29-1, N-{4-[4-(Benzyloxy)phenyl]pyrimidin-2-yl}phenylalanine]: < 100 nM.
